Data taken from publication PMC9898036, “VIP152 is a selective CDK9 inhibitor with pre-clinical in vitro and in vivo efficacy in chronic lymphocytic leukemia” (Leukemia, 2022).

Legend:
SGK2 = SGK2 (Homo sapiens, UniProt Q9HBY8); assay: KINOMEscan: SGK2; assay type: binding; conditions: 100 nM, read-out: Percent Control
DMPK2 = DMPK2 (Homo sapiens, UniProt Q6DT37); assay: KINOMEscan: DMPK2; assay type: binding; conditions: 1000 nM, read-out: Percent Control
MAST1 = MAST1 (Homo sapiens, UniProt Q9Y2H9); assay: KINOMEscan: MAST1; assay type: binding; conditions: 1000 nM, read-out: Percent Control
MARK3 = MARK3 (Homo sapiens, UniProt P27448); assay: KINOMEscan: MARK3; assay type: binding; conditions: 1000 nM, read-out: Percent Control
EPHA3 = EPHA3 (Homo sapiens, UniProt P29320); assay: KINOMEscan: EPHA3; assay type: binding; conditions: 1000 nM, read-out: Percent Control
Purinergic P2X = assay: Eurofins Diversity Panel; assay type: binding; conditions: rabbit, Conc. 10 μM
AKT2 = AKT2 (Homo sapiens, UniProt P31751); assay: KINOMEscan: AKT2; assay type: binding; conditions: 1000 nM, read-out: Percent Control
EPHA2 = EPHA2 (Homo sapiens, UniProt P29317); assay: KINOMEscan: EPHA2; assay type: binding; conditions: 1000 nM, read-out: Percent Control
ITK = ITK (Homo sapiens, UniProt Q08881); assay: KINOMEscan: ITK; assay type: binding; conditions: 1000 nM, read-out: Percent Control
TLK2 = TLK2 (Homo sapiens, UniProt Q86UE8); assay: KINOMEscan: TLK2; assay type: binding; conditions: 100 nM, read-out: Percent Control
ACVR2A = ACVR2A (Homo sapiens, UniProt P27037); assay: KINOMEscan: ACVR2A; assay type: binding; conditions: 1000 nM, read-out: Percent Control
TRKC = TRKC (Homo sapiens, UniProt Q16288); assay: KINOMEscan: TRKC; assay type: binding; conditions: 100 nM, read-out: Percent Control
CDC2L2 = CDC2L2 (Homo sapiens, UniProt Q9UQ88); assay: KINOMEscan: CDC2L2; assay type: binding; conditions: 1000 nM, read-out: Percent Control
[1] = target: CDK9 in complex with Cyclin T1 (Homo sapiens, UniProt P50750); assay: HotSpot radiometric kinase assay; assay type: biochemical; set-up: purchased ReactionBio
CDK9 in complex with Cyclin T1, sequence (P50750 whole entry): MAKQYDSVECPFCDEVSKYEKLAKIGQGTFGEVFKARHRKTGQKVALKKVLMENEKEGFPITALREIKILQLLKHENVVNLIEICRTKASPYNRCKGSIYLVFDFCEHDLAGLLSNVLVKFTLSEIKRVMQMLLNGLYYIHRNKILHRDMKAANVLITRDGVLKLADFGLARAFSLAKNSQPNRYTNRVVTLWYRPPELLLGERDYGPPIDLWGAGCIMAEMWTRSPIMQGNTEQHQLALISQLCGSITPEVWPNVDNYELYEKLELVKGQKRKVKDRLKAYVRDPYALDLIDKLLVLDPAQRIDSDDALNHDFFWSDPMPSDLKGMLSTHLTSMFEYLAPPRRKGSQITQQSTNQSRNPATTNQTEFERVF
CDK9 in complex with Cyclin T1, sequence (O60563 whole entry partner): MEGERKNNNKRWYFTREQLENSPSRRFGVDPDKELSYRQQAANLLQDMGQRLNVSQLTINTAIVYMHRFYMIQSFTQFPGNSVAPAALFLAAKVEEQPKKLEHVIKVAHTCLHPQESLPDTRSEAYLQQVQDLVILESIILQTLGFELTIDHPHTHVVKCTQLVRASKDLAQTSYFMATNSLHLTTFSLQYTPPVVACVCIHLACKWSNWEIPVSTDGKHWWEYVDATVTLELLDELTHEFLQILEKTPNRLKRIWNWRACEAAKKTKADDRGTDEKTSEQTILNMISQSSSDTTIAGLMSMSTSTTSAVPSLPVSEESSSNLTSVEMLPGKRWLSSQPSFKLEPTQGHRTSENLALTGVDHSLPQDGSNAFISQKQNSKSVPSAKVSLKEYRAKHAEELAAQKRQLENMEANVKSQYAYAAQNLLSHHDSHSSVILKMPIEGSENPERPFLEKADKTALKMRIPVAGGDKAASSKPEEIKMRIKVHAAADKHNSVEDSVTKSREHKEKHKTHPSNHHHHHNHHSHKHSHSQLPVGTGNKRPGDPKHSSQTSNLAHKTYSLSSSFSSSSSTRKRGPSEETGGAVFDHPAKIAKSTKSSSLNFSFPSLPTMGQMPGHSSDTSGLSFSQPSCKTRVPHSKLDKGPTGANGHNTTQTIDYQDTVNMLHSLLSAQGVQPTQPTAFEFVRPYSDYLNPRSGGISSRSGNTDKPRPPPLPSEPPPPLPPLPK
Method: (§1) We next compared VIP152 to other CDK inhibitors currently in development. […] The compounds were tested in a 10-dose series from 0.5 nM to 10 µM against CDK9 in complex with Cyclin T1/T2/K, CDK7/Cyclin H, and GSK3α/β. […]
(§2) HotSpot Kinase Assay Protocol
(§3) Compounds tested via HotSpot Kinase Assay were sent to ReactionBio for the experiment. The […]
(§4) Kinase substrate was added to reaction buffer (20 mM Hepes (pH 7.5), 10 mM MgCl2, 1 mM EGTA, 0.01% Brij35, 0.02 mg/ml BSA, 0.1 mM Na3VO4, 2 mM DTT, 1% DMSO). Cofactors and kinases were gently added to the reaction buffer. Compounds to be tested were dissolved in 100% DMSO and were delivered into the kinase reaction mixture by Acoustic technology (Echo550; nanoliter range) and incubated for 20 min at room temperature. 32P-ATP was delivered into the reaction mixture and the reaction was allowed to proceed for 2 hours. Kinase activity was detected by P81 filter-binding method.

GSK3β = GSK3β (Homo sapiens, UniProt P49841); assay: HotSpot radiometric kinase assay; assay type: biochemical; set-up: purchased ReactionBio; conditions: 10-dose series from 0.5 nM to 10 µM; vs dinaciclib, KB-0742, atuveciclib
GSK3β, sequence (P49841 whole entry): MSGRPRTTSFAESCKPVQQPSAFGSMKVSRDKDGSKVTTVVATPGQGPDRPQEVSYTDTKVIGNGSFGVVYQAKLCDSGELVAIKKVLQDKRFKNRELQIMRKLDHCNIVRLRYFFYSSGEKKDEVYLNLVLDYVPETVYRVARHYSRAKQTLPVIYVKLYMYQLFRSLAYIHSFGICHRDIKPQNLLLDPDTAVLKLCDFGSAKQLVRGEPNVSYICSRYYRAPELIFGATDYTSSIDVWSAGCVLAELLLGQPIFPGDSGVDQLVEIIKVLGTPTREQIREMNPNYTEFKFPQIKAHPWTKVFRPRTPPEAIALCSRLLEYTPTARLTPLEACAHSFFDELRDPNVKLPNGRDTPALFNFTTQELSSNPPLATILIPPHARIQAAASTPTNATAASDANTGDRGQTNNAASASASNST
Method: as §1, §2, §3, §4

[2] = target: CDK9 in complex with Cyclin T2 (Homo sapiens, UniProt P50750); assay: HotSpot radiometric kinase assay; assay type: biochemical; set-up: purchased ReactionBio; conditions: 10-dose series from 0.5 nM to 10 µM; vs dinaciclib, KB-0742, atuveciclib
Method: as §1, §2, §3, §4

MKNK2 = MKNK2 (Homo sapiens, UniProt Q9HBH9); assay: KINOMEscan: MKNK2; assay type: binding; conditions: 1000 nM, read-out: Percent Control
MKNK2, sequence (Q9HBH9 whole entry): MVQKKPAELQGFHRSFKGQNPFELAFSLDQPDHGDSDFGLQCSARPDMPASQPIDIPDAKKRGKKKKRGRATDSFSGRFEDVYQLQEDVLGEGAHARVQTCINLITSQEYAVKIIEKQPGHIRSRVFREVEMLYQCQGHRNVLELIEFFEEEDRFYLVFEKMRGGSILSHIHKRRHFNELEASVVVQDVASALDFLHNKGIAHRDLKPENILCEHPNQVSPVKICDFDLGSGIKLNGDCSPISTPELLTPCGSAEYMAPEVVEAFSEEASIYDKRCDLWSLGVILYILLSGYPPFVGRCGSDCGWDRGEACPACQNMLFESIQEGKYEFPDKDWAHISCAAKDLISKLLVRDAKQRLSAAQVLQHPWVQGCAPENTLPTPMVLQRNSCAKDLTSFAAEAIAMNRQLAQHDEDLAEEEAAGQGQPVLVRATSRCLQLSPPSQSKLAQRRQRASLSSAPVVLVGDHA

BMPR1A = BMPR1A (Homo sapiens, UniProt P36894); assay: KINOMEscan: BMPR1A; assay type: binding; conditions: 1000 nM, read-out: Percent Control
BMPR1A, sequence (P36894 24-532): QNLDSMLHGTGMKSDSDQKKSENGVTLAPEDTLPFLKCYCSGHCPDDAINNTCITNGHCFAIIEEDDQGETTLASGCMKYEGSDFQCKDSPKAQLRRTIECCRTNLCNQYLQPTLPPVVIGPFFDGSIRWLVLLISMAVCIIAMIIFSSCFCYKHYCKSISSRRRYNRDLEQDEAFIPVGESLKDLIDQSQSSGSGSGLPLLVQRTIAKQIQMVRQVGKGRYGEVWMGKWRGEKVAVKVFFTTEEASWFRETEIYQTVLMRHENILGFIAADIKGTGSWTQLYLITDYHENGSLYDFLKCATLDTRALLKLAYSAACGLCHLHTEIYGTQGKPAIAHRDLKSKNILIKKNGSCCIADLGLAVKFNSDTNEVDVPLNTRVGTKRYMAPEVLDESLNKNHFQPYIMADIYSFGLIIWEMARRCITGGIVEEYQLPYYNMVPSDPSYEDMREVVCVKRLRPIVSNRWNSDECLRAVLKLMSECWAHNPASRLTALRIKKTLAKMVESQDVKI

Histamine H2 = Histamine H2 (Homo sapiens, UniProt P25021); assay: Eurofins Diversity Panel; assay type: binding; conditions: hum, Conc. 10 μM
ARK5 = ARK5 (Homo sapiens, UniProt O60285); assay: KINOMEscan: ARK5; assay type: binding; conditions: 1000 nM, read-out: Percent Control
ARK5, sequence (O60285 whole entry): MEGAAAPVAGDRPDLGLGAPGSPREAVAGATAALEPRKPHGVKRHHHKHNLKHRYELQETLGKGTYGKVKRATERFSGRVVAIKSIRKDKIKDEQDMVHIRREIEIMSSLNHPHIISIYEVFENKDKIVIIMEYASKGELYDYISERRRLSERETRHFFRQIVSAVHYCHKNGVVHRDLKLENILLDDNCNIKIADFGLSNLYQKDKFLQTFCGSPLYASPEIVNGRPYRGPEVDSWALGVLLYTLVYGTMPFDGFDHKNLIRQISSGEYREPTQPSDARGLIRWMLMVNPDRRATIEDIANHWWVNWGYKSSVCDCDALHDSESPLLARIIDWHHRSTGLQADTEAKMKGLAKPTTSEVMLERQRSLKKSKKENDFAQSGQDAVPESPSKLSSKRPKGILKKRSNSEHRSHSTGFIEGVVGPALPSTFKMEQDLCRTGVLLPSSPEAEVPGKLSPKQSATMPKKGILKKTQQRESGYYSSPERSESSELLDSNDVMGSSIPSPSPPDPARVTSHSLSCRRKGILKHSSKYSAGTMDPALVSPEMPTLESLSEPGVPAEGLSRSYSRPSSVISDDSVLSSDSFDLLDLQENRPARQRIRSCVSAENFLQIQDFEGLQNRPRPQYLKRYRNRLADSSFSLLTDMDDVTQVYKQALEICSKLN

EIF2AK1 = EIF2AK1 (Homo sapiens, UniProt Q9BQI3); assay: KINOMEscan: EIF2AK1; assay type: binding; conditions: 1000 nM, read-out: Percent Control
CAMK2A = CAMK2A (Homo sapiens, UniProt Q9UQM7); assay: KINOMEscan: CAMK2A; assay type: binding; conditions: 1000 nM, read-out: Percent Control
CAMK2A, sequence (Q9UQM7 whole entry): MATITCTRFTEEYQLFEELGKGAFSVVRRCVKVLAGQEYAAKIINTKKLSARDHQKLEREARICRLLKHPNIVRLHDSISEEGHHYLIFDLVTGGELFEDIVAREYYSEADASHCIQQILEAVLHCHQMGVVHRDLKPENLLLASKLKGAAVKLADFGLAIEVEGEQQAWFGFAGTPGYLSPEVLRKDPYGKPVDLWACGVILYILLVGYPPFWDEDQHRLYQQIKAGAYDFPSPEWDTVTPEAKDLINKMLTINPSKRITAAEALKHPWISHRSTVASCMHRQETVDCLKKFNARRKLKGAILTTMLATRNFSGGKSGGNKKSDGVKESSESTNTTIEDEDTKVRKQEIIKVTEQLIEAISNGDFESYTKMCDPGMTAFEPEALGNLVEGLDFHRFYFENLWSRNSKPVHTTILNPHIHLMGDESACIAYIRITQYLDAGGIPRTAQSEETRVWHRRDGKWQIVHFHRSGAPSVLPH

CAMK1B = CAMK1B (Homo sapiens, UniProt Q6P2M8); assay: KINOMEscan: CAMK1B; assay type: binding; conditions: 1000 nM, read-out: Percent Control
IRAK4 = IRAK4 (Homo sapiens, UniProt Q9NWZ3); assay: KINOMEscan: IRAK4; assay type: binding; conditions: 1000 nM, read-out: Percent Control
AURKA = AURKA (Homo sapiens, UniProt O14965); assay: KINOMEscan: AURKA; assay type: binding; conditions: 1000 nM, read-out: Percent Control
AURKA, sequence (O14965 whole entry): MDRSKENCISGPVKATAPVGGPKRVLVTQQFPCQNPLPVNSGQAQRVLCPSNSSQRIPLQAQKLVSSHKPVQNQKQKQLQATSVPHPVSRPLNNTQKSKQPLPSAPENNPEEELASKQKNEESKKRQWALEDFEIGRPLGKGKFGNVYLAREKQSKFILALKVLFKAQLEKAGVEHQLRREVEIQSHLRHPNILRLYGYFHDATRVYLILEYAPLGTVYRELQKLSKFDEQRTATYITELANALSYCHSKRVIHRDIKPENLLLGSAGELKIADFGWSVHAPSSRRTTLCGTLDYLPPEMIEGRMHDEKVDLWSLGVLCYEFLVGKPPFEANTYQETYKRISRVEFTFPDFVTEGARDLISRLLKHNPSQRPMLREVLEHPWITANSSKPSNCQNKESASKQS

[3] = target: EGFR(L747-S752del, P753S) (Homo sapiens, UniProt P00533, DEL747-752/P753S); assay: KINOMEscan: EGFR(L747-S752del, P753S); assay type: binding; conditions: 1000 nM, read-out: Percent Control
CSNK1E = CSNK1E (Homo sapiens, UniProt P49674); assay: KINOMEscan: CSNK1E; assay type: binding; conditions: 1000 nM, read-out: Percent Control
CSNK1E, sequence (P49674 whole entry): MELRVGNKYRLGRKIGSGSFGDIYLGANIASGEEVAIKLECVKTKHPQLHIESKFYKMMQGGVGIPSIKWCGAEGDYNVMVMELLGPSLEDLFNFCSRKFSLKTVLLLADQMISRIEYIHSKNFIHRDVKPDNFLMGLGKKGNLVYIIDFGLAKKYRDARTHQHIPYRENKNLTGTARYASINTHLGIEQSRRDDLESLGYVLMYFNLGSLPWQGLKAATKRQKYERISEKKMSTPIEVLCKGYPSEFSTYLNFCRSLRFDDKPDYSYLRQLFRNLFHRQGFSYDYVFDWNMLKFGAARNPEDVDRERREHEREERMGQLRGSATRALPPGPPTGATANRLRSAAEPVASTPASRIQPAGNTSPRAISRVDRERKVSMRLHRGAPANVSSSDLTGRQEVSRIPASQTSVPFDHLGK

Glucocorticoid = Glucocorticoid (Homo sapiens, UniProt P04150); assay: Eurofins Diversity Panel; assay type: binding; conditions: hum, Conc. 10 μM
Dopamine D2S = Dopamine D2S (Homo sapiens, UniProt P14416); assay: Eurofins Diversity Panel; assay type: binding; conditions: hum, Conc. 10 μM
Dopamine D2S, sequence (P14416 1-414 isoform P14416-2): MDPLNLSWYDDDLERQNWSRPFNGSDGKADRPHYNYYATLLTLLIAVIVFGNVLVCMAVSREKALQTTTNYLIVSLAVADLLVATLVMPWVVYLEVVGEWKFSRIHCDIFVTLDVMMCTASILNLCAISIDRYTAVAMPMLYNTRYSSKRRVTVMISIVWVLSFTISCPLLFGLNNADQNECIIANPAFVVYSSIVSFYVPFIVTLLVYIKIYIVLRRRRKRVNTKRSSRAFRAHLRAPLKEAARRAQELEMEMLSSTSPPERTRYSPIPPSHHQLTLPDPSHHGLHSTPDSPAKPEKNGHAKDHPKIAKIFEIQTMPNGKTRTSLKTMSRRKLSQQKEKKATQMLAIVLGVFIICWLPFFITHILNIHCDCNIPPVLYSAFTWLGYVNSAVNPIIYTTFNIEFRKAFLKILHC

COc1cc(F)ccc1-c1cc(Nc2cc(CS(C)(=N)=O)ccn2)ncc1F (stereo not drawn) [VIP152]
remaining binding at 0.1 µM (SGK2): 100% | remaining binding at 1 µM (DMPK2): 88% | remaining binding at 1 µM (MAST1): 81% | remaining binding at 1 µM (MARK3): 100% | remaining binding at 1 µM (EPHA3): 89% | % Inh. (Purinergic P2X): 11% | remaining binding at 1 µM (AKT2): 100% | remaining binding at 1 µM (EPHA2): 97% | remaining binding at 1 µM (ITK): 100% | remaining binding at 0.1 µM (TLK2): 100% | remaining binding at 1 µM (ACVR2A): 75% | remaining binding at 0.1 µM (TRKC): 83% | remaining binding at 1 µM (CDC2L2): 78% | potency versus the other inhibitors tested ([1]; 10-dose series from 0.5 nM to 10 µM, vs dinaciclib, KB-0742, atuveciclib): higher potency | increase in potency compared with other inhibitors currently in development ([1]; CDK9): > 10 fold | potency versus the other inhibitors tested (GSK3β): higher potency | potency versus the other inhibitors tested [2]: higher potency | remaining binding at 1 µM (MKNK2): 96% | remaining binding at 1 µM (BMPR1A): 97% | inhibition at 10 µM (Histamine H2): 23% | remaining binding at 1 µM (ARK5): 100% | remaining binding at 1 µM (EIF2AK1): 100% | remaining binding at 1 µM (CAMK2A): 84% | remaining binding at 1 µM (CAMK1B): 98% | remaining binding at 1 µM (IRAK4): 78% | remaining binding at 1 µM (AURKA): 41% | remaining binding at 1 µM [3]: 94% | remaining binding at 1 µM (CSNK1E): 89% | inhibition at 10 µM (Glucocorticoid): 30% | inhibition at 10 µM (Dopamine D2S): 15%
